Experimental data taken from patent publication US11053248B2, “[1,2,4]triazolo[1,5-a]pyrimidine compounds as PDE2 inhibitors” (Janssen Pharmaceutica NV, priority 2016, dated 2021).

Legend:
hPDE3B = test: In vitro assay PDE3 (SPA, 3H-cAMP); type: biochemical, human
PDE2A = biological target: T1, PDE2A (Rattus norvegicus, UniProt Q01062); test: PDE2 occupancy by ex-vivo autoradiography with [3H]B-17a; type: in vivo; details: rat
T1 construct: from tissue; host or cells: rat brain striatal sections (ex vivo)
T1 sequence (Q01062 1-928): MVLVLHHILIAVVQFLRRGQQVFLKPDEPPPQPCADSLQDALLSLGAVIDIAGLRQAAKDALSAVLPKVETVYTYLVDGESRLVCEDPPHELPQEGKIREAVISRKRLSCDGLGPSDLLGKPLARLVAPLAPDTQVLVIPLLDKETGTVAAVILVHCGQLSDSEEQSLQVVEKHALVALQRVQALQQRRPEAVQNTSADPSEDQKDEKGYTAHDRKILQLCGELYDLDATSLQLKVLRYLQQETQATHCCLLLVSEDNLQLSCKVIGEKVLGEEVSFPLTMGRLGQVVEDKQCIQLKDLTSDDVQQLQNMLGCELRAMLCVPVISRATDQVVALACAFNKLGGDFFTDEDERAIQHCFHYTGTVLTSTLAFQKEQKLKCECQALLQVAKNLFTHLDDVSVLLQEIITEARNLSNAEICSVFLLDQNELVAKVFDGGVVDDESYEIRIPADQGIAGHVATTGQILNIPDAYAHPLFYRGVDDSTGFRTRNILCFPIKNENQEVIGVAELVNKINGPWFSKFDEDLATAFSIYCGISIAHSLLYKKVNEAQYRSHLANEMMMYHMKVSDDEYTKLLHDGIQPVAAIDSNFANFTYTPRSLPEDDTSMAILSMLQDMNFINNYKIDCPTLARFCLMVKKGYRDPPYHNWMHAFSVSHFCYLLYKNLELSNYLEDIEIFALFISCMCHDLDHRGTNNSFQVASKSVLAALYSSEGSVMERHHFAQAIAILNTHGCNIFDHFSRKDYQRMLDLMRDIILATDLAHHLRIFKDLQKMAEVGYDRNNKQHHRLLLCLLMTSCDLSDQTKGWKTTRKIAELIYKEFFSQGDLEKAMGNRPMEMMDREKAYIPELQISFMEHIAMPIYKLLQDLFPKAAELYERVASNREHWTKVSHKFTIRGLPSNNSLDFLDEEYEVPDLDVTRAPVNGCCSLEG

Solubility (as reported) = type: physicochemical; details: in words

C[C@@H]1CCN(c2nccc3ccc(Br)cc23)C[C@H]1c1cc(C(F)F)nc2ncnn12 [Compound 1]
hPDE3B Emax (hPDE3B): 73
hPDE3B pIC50 (hPDE3B; 0.4 μM cAMP substrate): 5.25
receptor occupancy at 10 mg/kg (PDE2A; po, read-out: PDE2 occupancy at 10 mg/kg, route PO (oral), 10 mg/kg, male Wistar rats, striatum, percentage occupancy): 94%
ED50 (PDE2A; sc, read-out: PDE occupancy ED50, route SC (subcutaneous), male Wistar rats, dose producing 50% occupancy): 6.7 mg/kg
solubility (Solubility (as reported)): poor
